Experimental data from ChEMBL document CHEMBL2146468, “Thrombin inhibitors from the freshwater cyanobacterium Anabaena compacta” (J Nat Prod, 2012).

Legend:
[1] = Inhibition of trypsin
[2] = Selectivity ratio of EC50 for bovine thrombin to EC50 for cathepsin B
Prothrombin [3] = target: Prothrombin (Bos taurus, UniProt P00735); test: Inhibition of bovine thrombin using Bz-Phe-Val-Arg-pNA as substrate incubated for 5 mins prior to substrate addition measured after 30 mins by spectrophotometric analysis
Prothrombin [4] = target: Prothrombin (Homo sapiens, UniProt P00734); test: Inhibition of thrombin
Cathepsin B = Cathepsin B (Homo sapiens, UniProt P07858); test: Inhibition of cathepsin B using Z-Phe-Arg-MCA as substrate incubated for 10 mins prior to substrate addition measured after 30 mins by fluorimetric analysis
Plasminogen = Plasminogen (Homo sapiens, UniProt P00747); test: Inhibition of plasmin
Sequence of Plasminogen (P00747 97-580 limits assumed): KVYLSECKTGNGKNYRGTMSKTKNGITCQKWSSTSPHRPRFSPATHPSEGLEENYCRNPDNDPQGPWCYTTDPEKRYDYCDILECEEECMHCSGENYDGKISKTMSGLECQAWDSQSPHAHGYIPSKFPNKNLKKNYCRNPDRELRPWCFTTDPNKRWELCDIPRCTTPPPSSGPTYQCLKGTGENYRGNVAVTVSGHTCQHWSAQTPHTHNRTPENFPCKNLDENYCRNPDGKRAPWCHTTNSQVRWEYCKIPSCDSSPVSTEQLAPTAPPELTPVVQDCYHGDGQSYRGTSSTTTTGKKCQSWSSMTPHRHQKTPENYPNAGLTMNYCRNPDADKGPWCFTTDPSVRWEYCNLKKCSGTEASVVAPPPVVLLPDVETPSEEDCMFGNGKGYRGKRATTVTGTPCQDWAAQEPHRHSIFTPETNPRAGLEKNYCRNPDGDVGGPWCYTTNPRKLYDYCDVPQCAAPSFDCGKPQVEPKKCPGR
Sequence of Plasminogen (P00747 581-810 limits assumed): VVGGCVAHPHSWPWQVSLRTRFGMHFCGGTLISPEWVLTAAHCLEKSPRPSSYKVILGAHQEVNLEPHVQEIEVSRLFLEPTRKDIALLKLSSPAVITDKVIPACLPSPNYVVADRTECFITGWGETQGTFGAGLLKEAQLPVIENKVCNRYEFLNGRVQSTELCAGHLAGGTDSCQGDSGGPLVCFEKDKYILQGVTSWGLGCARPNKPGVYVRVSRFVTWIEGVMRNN

Compound | EC50 [1] | Ratio EC50 [2] | EC50 (Prothrombin [3]) | EC50 (Prothrombin [4]) | EC50 (Cathepsin B) | EC50 (Plasminogen)
C[C@H]1C[C@@H](C(=O)N[C@H](CO)CCCNC(=N)N)N(C(=O)[C@@H](CCc2ccc(O)cc2)NC(=O)[C@H](O)Cc2ccc(O)cc2)C1 [SPUMIGIN A] | 26.3 µM | 10 |  |  |  | 
C[C@H]1C[C@@H](C(=O)N[C@H](CO)CCCN=C(N)N)N(C(=O)[C@@H](CCc2ccc(O)cc2)NC(=O)[C@H](O)Cc2ccc(O)cc2)C1 [SPUMIGIN A] |  |  | 2.1 µM | 7.5 µM | 0.2 µM | 4.9 µM

Next, values leading:

EC50 [1] | Ratio EC50 [2] | EC50 (Prothrombin [3]) | EC50 (Prothrombin [4]) | EC50 (Cathepsin B) | EC50 (Plasminogen) | Compound
33.1 µM |  |  |  |  |  | C[C@H]1C[C@@H](C(=O)N[C@@H](CCCNC(=N)N)C(=O)O)N(C(=O)[C@@H](CCc2ccc(O)cc2)NC(=O)[C@H](O)Cc2ccc(O)cc2)C1 [SPUMIGIN B1]
 | 7 | 4.9 µM |  | 0.7 µM |  | C[C@H]1C[C@@H](C(=O)N(C)[C@H](CCCCN)C(=O)O)N(C(=O)[C@@H](CCc2ccc(O)cc2)NC(=O)[C@H](O)Cc2ccc(O)cc2)C1 [SPUMIGIN J]
0.3 µM |  |  |  |  |  | C[C@H]1C[C@@H](C(=O)NC(C=O)CCCNC(=N)N)N(C(=O)[C@@H](CCc2ccc(O)cc2)NC(=O)[C@H](O)Cc2ccc(O)cc2)C1 (stereo partly specified) [SPUMIGIN E]
